Experiment: pH stability of prodrugs of DFMO in PBS buffer
Format: physicochemical
Settings: for intact prodrug lost over the next 24 hours: 24 hours following the initial phase; for decrease in the amount of intact, non-degraded prodrug over the first hour of incubation: LC/MS/MS
Method: The stability of prodrugs of DFMO to different pH conditions over time was assayed. Prodrugs were reconstituted in dimethylsulfoxide (DMSO), diluted into phosphate buffered saline (PBS) of different pH values, incubated for different lengths of time at room temperature, and then analyzed by LC/MS/MS for changes in the levels of each prodrug. […] Following this initial phase, the (2)-prodrug was reasonably stable over the next 24 hours so that less than 20% of the intact prodrug was lost at pH 3 and 5, and about 60% of the intact material was lost at pH 8 over a day. […] Similar results were obtained with the other prodrugs tested.

stability of intact, non-degraded prodrug over time at different pH (in words) (PBS of different pH values, room temperature): slowly lost | intact prodrug lost over the next 24 hours (PBS pH 3, room temperature): less than 20% | decrease in the amount of intact, non-degraded prodrug over the first hour of incubation (PBS pH 3, room temperature): about 60% | intact prodrug lost over the next 24 hours (PBS pH 5, room temperature): less than 20% | decrease in the amount of intact, non-degraded prodrug over the first hour of incubation (PBS pH 5, room temperature): 30-35% | intact prodrug lost over the next 24 hours (PBS pH 8, room temperature): about 60% | decrease in the amount of intact, non-degraded prodrug over the first hour of incubation (PBS pH 8, room temperature): 30-35%
Compound: CC(OC(=O)NCCCC(N)(C(=O)O)C(F)F)OC(=O)C(C)C (stereo not shown) [(2)-prodrug, 2-amino-2-(difluoromethyl)-5-[1-(2-methylpropanoyloxy)ethoxycarbonylamino]pentanoic acid]
